Experiments:
[1] = Phenytoin precipitation inhibition in PBS containing dissolved polymer; assay type: physicochemical; conditions: PBS pH 6.5, 37° C., 500 μg/mL if all dissolved
Experimental: Phenyloin was dissolved in methanol at a concentration of 18 mg/mL. The polymers were dissolved in PBS (20 mM sodium phosphate (Na2HPO4), 47 mM potassium phosphate (KH2PO4), 87 mM NaCl, and 0.2 mM KCl, adjusted to pH 6.5 with NaOH) at a concentration of 1.5 mg/mL. […] HPLC was performed using a ZORBAX® RX-C18 column (4.6×75 mm, 3.5 μm, Agilent Technologies) and a mobile phase comprising 0.2% H3PO4 in water, at a flow rate of 1.0 mL/min; 10 μL of each solution was injected. […] HPMCAS-K(3) and HPMCAS-LG have similar degrees of succinate substitution ([…], respectively (see Table 7)), but greatly different degrees of acetate substitution (1.41 and 0.47, respectively).

[2] = Microcentrifuge dissolution of 25 wt % phenytoin spray-dried dispersions in MFDS; assay type: physicochemical; conditions: dissolved phenytoin; SDD or bulk in MFDS pH 6.5, 37° C.
From the text: In another separate embodiment, compositions containing the HPMCAS polymers are concentration enhancing. The term “concentration enhancing” means that the polymer is present in a sufficient amount in the composition so as to improve, or increase, the concentration of dissolved active agent in an aqueous use environment relative to a control composition free from the polymer. As used herein, a “use environment” can be either the in vivo environment of the gastrointestinal tract, subdermal, intranasal, buccal, intrathecal, ocular, intraaural, subcutaneous spaces, vaginal tract, arterial and venous blood vessels, pulmonary tract or intramuscular tissue of an animal, such as a mammal and particularly a human, or the in vitro environment of a test solution, such as phosphate buffered saline (PBS), simulated intestinal buffer without enzymes (SIN), a Model Fasted Duodenal (MFD) solution, or a solution to model the fed state. Concentration enhancement may be determined through either in vitro dissolution tests or through in vivo tests. It has been determined that enhanced active agent concentrations in in vitro dissolution tests in such in vitro test solutions provide good indicators of in vivo performance and bioavailability. An appropriate PBS solution is an aqueous solution comprising 20 mM sodium phosphate (Na2HPO4), 47 mM potassium phosphate (KH2PO4), 87 mM NaCl, and 0.2 mM KCl, adjusted to pH 6.5 with NaOH. An appropriate SIN solution is 50 mM KH2PO4 adjusted to pH 7.4. […] In particular, a composition may be dissolution-tested by adding it to an in vitro test solution and agitating to promote dissolution, or by performing a membrane-permeation test as described in U.S. Published Patent Application No. 2008/0262107, which is incorporated herein by reference. Spray-dried dispersions (SDDs) comprising 25 wt % phenyloin in HPMCAS-K(3), HPMCAS-K(1), HPMCAS-HG, and HPMCAS-LG were prepared as described in section VIII. […] Dissolved concentrations were measured by HPLC.

## O=C1NC(=O)C(c2ccccc2)(c2ccccc2)N1 [Phenytoin bulk, Phenytoin]
[1]; dissolved phenytoin at 1200 min
  C1200: 80 µg/mL
[1]; dissolved phenytoin, 0-90 min
  AUC90: 6,500 min * μg/mL
[1]; dissolved phenytoin, maximum in first 90 min
  Cmax90: 120 µg/mL
[2]
  AUC90: 3,500 min * μg/mL
  C1200: 40 µg/mL
  Cmax90: 40 µg/mL

Source: patent US9040033B2, “Hydroxypropyl methyl cellulose acetate succinate with enhanced acetate and succinate substitution” (Dow Global Technologies LLC, priority 2010, dated 2015)
